IC50 data for 30 compounds are collected here from PubChem BioAssay AID602210 (Sanford-Burnham Center for Chemical Genomics, 2012).

Molecules are shown by their SMILES. Activity calls are given as the source filed them. The rule behind the calls is not given here.

A short description of the test: H9c2 cardiomyoblast viability modulators under 2-DG – cell-based, ATPlite luminescence, rat, set 2, myocardial damage modulator project, dose response (AID 602210). To be noted: H9c2 rat cardiomyoblasts, 2-deoxyglucose-induced death, 2 h. In general terms: ATP-based viability assays read luminescence as a measure of living cells.
One may read the IC50 as the point on the concentration scale where inhibition reaches its midpoint. `O=C(Nc1nc(-c2cc(F)ccc2F)cs1)C1=NN(c2ccccc2)C(=O)CC1`: the IC50 was 14.2 µM (inactive). In the case of `Cc1cc(C)c(C)c(S(=O)(=O)N2CCN(C(=O)c3cc(=O)[nH]c4ccccc34)CC2)c1C` it was 5.01 µM; in that of `C=CC[C@@H](CC(=O)N[C@H](CO)Cc1ccccc1)C(=O)N[C@@H](COC(=O)[C@@H](CC=C)CC(=O)OC(C)(C)C)Cc1ccccc1`, 45.4 µM (inactive); in that of `COc1ccc2c(c1OC)c(=O)n1c3ccc(OC(C)C(=O)NCCN4CCOCC4)cc3c3ccnc2c31` (stereo not given), 46.6 µM (inactive).

`COc1ccc(Nc2nc(C(=O)N3CCc4cc(OC)c(OC)cc4C3)cs2)cc1`: the IC50 was 14.2 µM (inactive). Next, `CC(C)(C)OC(=O)NCc1ccc(NC(=O)c2nc[nH]c2C(=O)NCCCCCCNC(=O)c2[nH]cnc2C(=O)Nc2ccc(CNC(=O)OC(C)(C)C)cc2)cc1`: > 79 µM (inactive); `COC(=O)c1ccc(N)c(N=CC2=C(O)CC(C)(C)CC2=O)c1`: 11.9 µM (inactive); `CC12C=CC(=O)CC1CCC1C2CCC2(C)C(O)C(O)CC12` (stereo not given): 21 µM (inactive).

Consider `COc1ccc(N(CC(=O)Nc2cccc(C(C)=O)c2)S(=O)(=O)c2ccc(NC(C)=O)cc2)cc1`, for which the IC50 was 13.4 µM (inactive). In the case of `CCOC(=O)C(Cc1ccc(NC(=O)/C(=C/c2ccc(OC(C)=O)cc2)NC(C)=O)cc1)N1C(=O)c2ccccc2C1=O` (stereo not given) it was 15.6 µM (inactive).

As for `COc1ccc(N/C=C(\C#N)c2nc3ccccc3n2C)c(OC)c1`, the IC50 is > 79 µM (inactive). Next, `O=C(CN1CCCCC1)Nc1nc(-c2ccc(F)c(F)c2)cs1`: > 79 µM (inactive); `COC(=O)c1ccc(C(=O)OC)c(NC(=O)COC(=O)C23CC4CC(CC(O)(C4)C2)C3)c1`: 10.5 µM (inactive). Regarding `CC(C)(C)NC(=O)c1cc(NC(=O)c2cccs2)cc(NC(=O)c2cccs2)c1`, the IC50 is 15.7 µM (inactive).

Regarding `CCOC(=O)C1CCN(C(c2cc3c(C)ccc(C)c3[nH]c2=O)c2nnnn2C2CCCCC2)CC1` (stereo not given), the IC50 is 19.2 µM (inactive). Next, `COC(=O)c1ccccc1NC(=O)/C=C/c1cc(OC)c(OC)c(OC)c1`: > 79 µM (inactive); `CCOC(=O)c1cnc(Nc2nc3ccccc3o2)nc1CSc1nnc(C)s1`: 27.3 µM (inactive); `CCn1c(SCC(=O)Nc2ccccc2N2CCCCC2)nc2c1c(=O)n(C)c(=O)n2C`: 16.4 µM (inactive). In the case of `C[C@@H]1ON(C)[C@H]2C[C@H]3c4[nH]c5ccc(-c6ccc7c(c6)OCO7)cc5c4CCN3C[C@@H]12` it was > 79 µM (inactive); in that of `N#Cc1c(-c2ccco2)cc(-c2cccnc2)nc1N`, 26.1 µM (inactive); in that of `CCOC(=O)N1CCN(C(=O)CSc2nc3c(cnn3-c3ccc(C)cc3)c(=O)[nH]2)CC1`, > 79 µM (inactive). In the case of `COc1ccc(C=NNc2nc3c([nH]2)c(=O)n(C)c(=O)n3C)cc1` it was 16.6 µM (inactive); in that of `COc1cc(-c2cc(NC(C)=O)c3ncc(-c4ccccc4)n3c2)cc(OC)c1OC`, > 79 µM (inactive). For the compound `COc1ccc(COc2cc(-c3cccc(OC)c3)nc3ccc(NC(=O)c4ccc(OC)cc4)cc23)cc1`, the IC50 is 4.21 µM. For `COC(=O)c1ccc(OCC(=O)Nc2ccccc2C(=O)NC2CC2)cc1`, the IC50 is 11.2 µM (inactive). Next, `Fc1ccc(CSc2ccc3nnc(-c4cccnc4)n3n2)cc1`: 44.5 µM (inactive); `N#C/C(=C\c1ccc(-c2cccc([N+](=O)[O-])c2)o1)C(=O)NCCN1CCOCC1`: > 79 µM (inactive); `COc1ccc(-c2nc(NC(=O)c3ccc(OCC(=O)N4CCOCC4)c(OC)c3)sc2C)cc1`: 23.7 µM (inactive).

Take `O=C(N/N=C/c1ccccn1)c1ccc(NC(=O)c2cccc([N+](=O)[O-])c2)cc1`: the IC50 was > 79 µM (inactive). In the case of `CC(C)(C)OC(=O)C[C@@H]1C/C=C\C[C@@H](CC(=O)N[C@H](CO)Cc2ccccc2)C(=O)NC[C@@H](c2ccccc2)OC1=O` it was 64 µM (inactive).
